Experimental findings from patent publication US10206937B2, “Boronic acid derivatives and therapeutic uses thereof” (Qpex Biopharma, Inc., priority 2014, dated 2019) are described below.

Bounds are passed on as bounds.

Assay [1] deals with T1, NDM-1 (Klebsiella pneumoniae, UniProt C7C422). The experiment in a line: biochemical. The settings on record: cleavage of imipenem (100 uM) by NDM-1; read-out: Ki, Imipenem.
Assay [2] concerns the target T1, NDM-1. Description: Inhibition of purified class B carbapenemase NDM-1 (Ki, imipenem substrate). Format: biochemical. The settings on record: NDM-1, substrate imipenem; read-out: Ki NDM-1, Imipenem.
Assay [3] has as its target T2, purified class A, C and D enzymes (UniProt P0AD64, L31Q/G234S/E235K, species not given).
T2 construct: Ki (SHV-12, NCF); other: purified SHV-12; nitrocefin reporter substrate
T2 sequence (P0AD64 1-286 L31Q/G234S/E235K): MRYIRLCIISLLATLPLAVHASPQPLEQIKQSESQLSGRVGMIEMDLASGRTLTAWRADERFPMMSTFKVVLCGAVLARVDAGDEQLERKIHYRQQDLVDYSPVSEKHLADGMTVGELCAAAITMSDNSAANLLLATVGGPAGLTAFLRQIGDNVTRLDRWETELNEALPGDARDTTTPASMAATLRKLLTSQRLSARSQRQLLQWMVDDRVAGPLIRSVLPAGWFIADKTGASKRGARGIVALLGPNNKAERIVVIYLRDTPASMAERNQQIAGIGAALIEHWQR
It counts as biochemical. The note with it: read-out: Ki (SHV-12, NCF); purified SHV-12; nitrocefin reporter substrate.

In assay [4] the target is T3, purified class A, C and D enzymes (UniProt Q6XEC0).
T3 construct: rows headed: Ki (OXA-48, NCF); other: purified OXA-48; nitrocefin reporter substrate
It counts as biochemical. The note with it: read-out: Ki (OXA-48, NCF); purified OXA-48; nitrocefin reporter substrate.

For assay [5], the target named is T4, purified class A, C and D enzymes (UniProt Q9F663).
T4 construct: rows headed: Ki (KPC-2, NCF); other: purified KPC-2; nitrocefin reporter substrate
It counts as biochemical. The note with it: read-out: Ki (KPC-2, NCF); purified KPC-2; nitrocefin reporter substrate.

In assay [6] the target is purified class A, C and D enzymes (Escherichia coli, UniProt Q9L5C7). Format: biochemical. The settings on record: purified CTX-M-14; nitrocefin reporter substrate.
Chain of purified class A, C and D enzymes (Escherichia coli, UniProt Q9L5C7) (Q9L5C7 entry or part of it): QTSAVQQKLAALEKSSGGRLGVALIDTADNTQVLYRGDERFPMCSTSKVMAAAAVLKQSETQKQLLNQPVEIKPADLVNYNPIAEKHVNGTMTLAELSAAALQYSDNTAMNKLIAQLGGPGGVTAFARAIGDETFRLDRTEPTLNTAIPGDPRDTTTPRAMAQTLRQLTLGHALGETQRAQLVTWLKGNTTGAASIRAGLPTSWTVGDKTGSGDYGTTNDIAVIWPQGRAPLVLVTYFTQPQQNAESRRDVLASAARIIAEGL
Assay [7] deals with purified class A, C and D enzymes (Enterobacter cloacae, UniProt P05364). It counts as biochemical. The note with it: purified P99/AmpC of ECL; nitrocefin reporter substrate.
Chain of purified class A, C and D enzymes (Enterobacter cloacae, UniProt P05364) (P05364 21-381): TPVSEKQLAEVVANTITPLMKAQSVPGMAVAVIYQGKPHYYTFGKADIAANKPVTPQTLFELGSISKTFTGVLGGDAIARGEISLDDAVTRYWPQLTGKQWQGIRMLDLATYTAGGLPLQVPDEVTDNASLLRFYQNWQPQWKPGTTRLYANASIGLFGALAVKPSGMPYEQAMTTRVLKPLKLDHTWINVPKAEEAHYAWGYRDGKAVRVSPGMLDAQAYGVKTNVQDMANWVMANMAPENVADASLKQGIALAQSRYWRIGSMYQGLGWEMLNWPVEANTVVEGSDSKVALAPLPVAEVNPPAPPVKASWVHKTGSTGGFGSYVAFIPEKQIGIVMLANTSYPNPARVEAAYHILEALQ
The next assay deals with T5, VIM-1 (Pseudomonas aeruginosa, UniProt A0A0F7KYQ8).
T5 construct: made in house; host or cells: ECM6711 strain carrying pUCP24-VIM-1 plasmid; culture supernatant used unpurified
Description: biochemical. The settings on record: cleavage of nitrocefin (200 uM) by VIM-1 supernatant.

T1 sequence (C7C422 29-270, looked up, species assumed): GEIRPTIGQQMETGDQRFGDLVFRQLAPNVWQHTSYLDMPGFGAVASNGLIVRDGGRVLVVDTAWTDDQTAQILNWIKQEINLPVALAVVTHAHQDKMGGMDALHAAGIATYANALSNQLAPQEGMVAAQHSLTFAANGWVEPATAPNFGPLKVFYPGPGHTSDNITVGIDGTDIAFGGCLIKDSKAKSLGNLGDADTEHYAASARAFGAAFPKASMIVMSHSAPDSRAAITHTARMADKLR

With `O=C(O)c1c(F)ccc2c1OB(O)[C@@H](Sc1nnc(C(F)(F)F)s1)C2` [Compound 55, (3R)-7-fluoro-2-hydroxy-3-[[5-(trifluoromethyl)-1,3,4-thiadiazol-2-yl]sulfanyl]-3,4-dihydro-1,2-benzoxaborinine-8-carboxylic acid], the Ki (in general, a dissociation constant, usually derived from enzyme kinetics or from competition with a known ligand) at NDM-1 [1] was greater than 100 nM; on NDM-1 [2], greater than 100 nM; in assay [3] it was 100 to 1000 nM; in assay [4] it was less than 100 nM; in assay [5] it was 100 to 1000 nM. Further, in assay [6], the “Ki (CTX-M-14, NCF)” value is “Y (0.1 μM to 1 μM)”. For the same compound, the “Ki (P99/AmpC of ECL, NCF)” value in assay [7] is listed as “Y (0.1 μM to 1 μM)”. Also, the IC50 (commonly the point on the concentration scale where inhibition reaches its midpoint) at VIM-1 is no less than 1000 nM.

Turning to `Cn1ncc(C(N)=O)c1S[C@H]1Cc2ccc(F)c(C(=O)O)c2OB1O` [Compound 56, (3R)-3-(4-carbamoyl-2-methyl-pyrazol-3-yl)sulfanyl-7-fluoro-2-hydroxy-3,4-dihydro-1,2-benzoxaborinine-8-carboxylic acid], the Ki on NDM-1 [1] is greater than 100 nM; on NDM-1 [2], greater than 100 nM; in assay [3] it was 100 to 1000 nM; in assay [4], less than 100 nM; in assay [5], 100 to 1000 nM. In assay [6], the “Ki (CTX-M-14, NCF)” value is on record as “Y (0.1 μM to 1 μM)”. In assay [7], the “Ki (P99/AmpC of ECL, NCF)” value is reported as “Z (Greater than 1 μM)”. This compound displayed an IC50 against VIM-1 of no less than 1000 nM.

On to `NCc1cnc(S[C@H]2Cc3ccc(F)c(C(=O)O)c3OB2O)s1` [Compound 57, (3R)-3-[5-(aminomethyl)thiazol-2-yl]sulfanyl-7-fluoro-2-hydroxy-3,4-dihydro-1,2-benzoxaborinine-8-carboxylic acid], for which the Ki at NDM-1 [1] is 10 to 100 nM; at NDM-1 [2], 10 to 100 nM; in assay [3], less than 100 nM; in assay [4], less than 100 nM; in assay [5] it was 100 to 1000 nM. In assay [6], the “Ki (CTX-M-14, NCF)” value was “X (Less than 0.1 μM)”. The “Ki (P99/AmpC of ECL, NCF)” value in assay [7] is reported as “Z (Greater than 1 μM)”. This compound also yielded an IC50 against VIM-1 of less than 1000 nM.

In the case of `O=CNc1cnc(S[C@H]2Cc3ccc(F)c(C(=O)O)c3OB2O)s1` [Compound 58, (3R)-7-fluoro-3-(5-formamidothiazol-2-yl)sulfanyl-2-hydroxy-3,4-dihydro-1,2-benzoxaborinine-8-carboxylic acid], the Ki at NDM-1 [1] was greater than 100 nM; on NDM-1 [2], greater than 100 nM; in assay [3], less than 100 nM; in assay [4], less than 100 nM; in assay [5] it was 100 to 1000 nM. Moreover, in assay [6], the “Ki (CTX-M-14, NCF)” value is given as “X (Less than 0.1 μM)”. Also, the “Ki (P99/AmpC of ECL, NCF)” value in assay [7] is reported as “Y (0.1 μM to 1 μM)”. Besides, at VIM-1, the IC50 was less than 1000 nM.

Regarding `O=C(O)c1c(F)ccc2c1OB(O)[C@@H](Sc1nncs1)C2` [Compound 59, (3R)-7-fluoro-2-hydroxy-3-(1,3,4-thiadiazol-2-ylsulfanyl)-3,4-dihydro-1,2-benzoxaborinine-8-carboxylic acid], the Ki at NDM-1 [1] was greater than 100 nM; on NDM-1 [2], greater than 100 nM; in assay [3], less than 100 nM; in assay [4] it was less than 100 nM; in assay [5] it was less than 100 nM. Moreover, the “Ki (CTX-M-14, NCF)” value in assay [6] is “X (Less than 0.1 μM)”. For the same compound, in assay [7], the “Ki (P99/AmpC of ECL, NCF)” value is “Y (0.1 μM to 1 μM)”. At VIM-1, this compound showed an IC50 of less than 1000 nM.

Consider `COc1ccc2c(c1C(=O)O)OB(O)[C@@H](Sc1cnns1)C2` [Compound 60, (3R)-2-hydroxy-7-methoxy-3-(thiadiazol-5-ylsulfanyl)-3,4-dihydro-1,2-benzoxaborinine-8-carboxylic acid], for which the Ki was greater than 100 nM on NDM-1 [1]; greater than 100 nM on NDM-1 [2]; less than 100 nM in assay [3]; less than 100 nM in assay [4]; less than 100 nM in assay [5]. Moreover, the “Ki (CTX-M-14, NCF)” value in assay [6] is listed as “X (Less than 0.1 μM)”. Moreover, the “Ki (P99/AmpC of ECL, NCF)” value in assay [7] is “Z (Greater than 1 μM)”. For the same compound, at VIM-1, the half-inhibitory concentration (IC50) is less than 1000 nM.

In the case of `COc1ccc2c(c1C(=O)O)OB(O)[C@@H](Sc1nc(C(N)=O)cs1)C2` [Compound 61, (3R)-3-(4-carbamoylthiazol-2-yl)sulfanyl-2-hydroxy-7-methoxy-3,4-dihydro-1,2-benzoxaborinine-8-carboxylic acid], the Ki is greater than 100 nM on NDM-1 [1]; greater than 100 nM on NDM-1 [2]; less than 100 nM in assay [3]; less than 100 nM in assay [4]; less than 100 nM in assay [5]. For the same compound, in assay [6], the “Ki (CTX-M-14, NCF)” value is given as “X (Less than 0.1 μM)”. Moreover, the “Ki (P99/AmpC of ECL, NCF)” value in assay [7] is “Y (0.1 μM to 1 μM)”. The compound further came in with an IC50 against VIM-1 of less than 1000 nM.

As to `COc1ccc2c(c1C(=O)O)OB(O)[C@@H](Sc1nnc(NC(C)=O)s1)C2` [Compound 63, (3R)-3-[(5-acetamido-1,3,4-thiadiazol-2-yl)sulfanyl]-2-hydroxy-7-methoxy-3,4-dihydro-1,2-benzoxaborinine-8-carboxylic acid], the Ki on NDM-1 [1] was greater than 100 nM; on NDM-1 [2] it was greater than 100 nM; in assay [3], less than 100 nM; in assay [4], less than 100 nM; in assay [5] it was 100 to 1000 nM. Moreover, in assay [6], the “Ki (CTX-M-14, NCF)” value is given as “X (Less than 0.1 μM)”. The “Ki (P99/AmpC of ECL, NCF)” value in assay [7] is reported as “X (Less than 0.1 μM)”. This compound also displayed an IC50 against VIM-1 of less than 1000 nM.

On to `COc1ccc2c(c1C(=O)O)OB(O)[C@@H](Sc1nnc(C(F)(F)F)n1N)C2` [Compound 64, (3R)-3-[[4-amino-5-(trifluoromethyl)-1,2,4-triazol-3-yl]sulfanyl]-2-hydroxy-7-methoxy-3,4-dihydro-1,2-benzoxaborinine-8-carboxylic acid], for which the inhibitory constant (Ki) is greater than 100 nM on NDM-1 [1]; greater than 100 nM on NDM-1 [2]; less than 100 nM in assay [3]; less than 100 nM in assay [4]; 100 to 1000 nM in assay [5]. In assay [6], the “Ki (CTX-M-14, NCF)” value is recorded as “X (Less than 0.1 μM)”. Moreover, the “Ki (P99/AmpC of ECL, NCF)” value in assay [7] is on record as “Z (Greater than 1 μM)”. The compound also yielded an IC50 against VIM-1 of less than 1000 nM.

Take `COc1ccc2c(c1C(=O)O)OB(O)[C@@H](SC1CN(C3=NCCS3)C1)C2` [Compound 65, (3R)-3-[1-(4,5-dihydrothiazol-2-yl)azetidin-3-yl]sulfanyl-2-hydroxy-7-methoxy-3,4-dihydro-1,2-benzoxaborinine-8-carboxylic acid]: the inhibitory constant (Ki) at NDM-1 [1] was greater than 100 nM; on NDM-1 [2], greater than 100 nM; in assay [3] it was less than 100 nM; in assay [4], less than 100 nM; in assay [5] it was less than 100 nM. Besides, the “Ki (CTX-M-14, NCF)” value in assay [6] is “X (Less than 0.1 μM)”. The “Ki (P99/AmpC of ECL, NCF)” value in assay [7] is given as “Z (Greater than 1 μM)”. This compound displayed an IC50 on VIM-1 of no less than 1000 nM.

For `COc1ccc2c(c1C(=O)O)OB(O)[C@@H](Sc1nnc(CN)n1N)C2` [Compound 66, (3R)-3-[[4-amino-5-(aminomethyl)-1,2,4-triazol-3-yl]sulfanyl]-2-hydroxy-7-methoxy-3,4-dihydro-1,2-benzoxaborinine-8-carboxylic acid], the Ki on NDM-1 [1] is 10 to 100 nM; on NDM-1 [2], 10 to 100 nM; in assay [3] it was less than 100 nM; in assay [4], 100 to 1000 nM; in assay [5] it was 100 to 1000 nM. Besides, in assay [6], the “Ki (CTX-M-14, NCF)” value was “X (Less than 0.1 μM)”. The “Ki (P99/AmpC of ECL, NCF)” value in assay [7] is “Z (Greater than 1 μM)”. Besides, at VIM-1, the concentration for half-maximal inhibition (IC50) was less than 1000 nM.

For the compound `COc1ccc2c(c1C(=O)O)OB(O)[C@@H](Sc1nnc(SCC(=N)N)s1)C2` [Compound 67, (3R)-3-[[5-(2-amino-2-imino-ethyl)sulfanyl-1,3,4-thiadiazol-2-yl]sulfanyl]-2-hydroxy-7-methoxy-3,4-dihydro-1,2-benzoxaborinine-8-carboxylic acid], the Ki at NDM-1 [1] was less than 10 nM; at NDM-1 [2], less than 10 nM; in assay [3] it was less than 100 nM; in assay [4], less than 100 nM; in assay [5], 100 to 1000 nM. For the same compound, the “Ki (CTX-M-14, NCF)” value in assay [6] is “X (Less than 0.1 μM)”. In addition, the “Ki (P99/AmpC of ECL, NCF)” value in assay [7] was “Y (0.1 μM to 1 μM)”. The same compound registered a half-inhibitory concentration (IC50) at VIM-1 of less than 1000 nM.

Turning to `COc1ccc2c(c1C(=O)O)OB(O)[C@@H](Sc1nnc(SCCN3CCNCC3)s1)C2` [Compound 68, (3R)-2-hydroxy-7-methoxy-3-[[5-(2-piperazin-1-ylethylsulfanyl)-1,3,4-thiadiazol-2-yl]sulfanyl]-3,4-dihydro-1,2-benzoxaborinine-8-carboxylic acid], the Ki was greater than 100 nM at NDM-1 [1]; greater than 100 nM at NDM-1 [2]; less than 100 nM in assay [3]; less than 100 nM in assay [4]; 100 to 1000 nM in assay [5]. The “Ki (CTX-M-14, NCF)” value in assay [6] is given as “X (Less than 0.1 μM)”. Also, in assay [7], the “Ki (P99/AmpC of ECL, NCF)” value was “Y (0.1 μM to 1 μM)”. This compound also showed an IC50 on VIM-1 of less than 1000 nM.
